Assay results: ChEMBL document CHEMBL1136691, “Identification of novel and potent isoquinoline aminooxazole-based IMPDH inhibitors” (Bioorg Med Chem Lett, 2003)

Target: Inosine-5'-monophosphate dehydrogenase 2 (Homo sapiens, UniProt P12268)
Assay: Inhibitory activity against inosine […] monophosphate dehydrogenase type II (IMPDH II)

Row | Compound | IC50
1 | Cc1cccc(NC(=O)Nc2ccc3cncnc3c2)c1 | 150 nM
2 | Cc1cccc(NC(=O)Nc2ccc3cnncc3c2)c1 | > 5000 nM
3 | c1ccc(-c2cnc(Nc3ccc4cncnc4c3)o2)cc1 | 60 nM
4 | O=C(Nc1ccccc1)Nc1ccc2cnccc2c1Br | 740 nM
5 | O=C(Nc1ccccc1)Nc1ccc2cnccc2c1Cl | 1660 nM
6 | O=C(Nc1ccccc1)Nc1ccc2ccncc2c1 | > 5000 nM
7 | O=C(NCc1ccccc1)Nc1ccc2cnccc2c1 | 400 nM
8 | CC(=O)Nc1ccc2cnccc2c1Cl | > 5000 nM
9 | O=C(Nc1ccccc1)Nc1ccc2cnccc2c1 | 740 nM
10 | Cc1ccccc1NC(=O)Nc1ccc2cnccc2c1 | 3800 nM
11 | Cc1cccc(NC(=O)Nc2ccc3cnccc3c2)c1 | 18 nM
12 | CC(=O)Nc1ccc2cnccc2c1Br | > 5000 nM
13 | Cc1ccc(NC(=O)Nc2ccc3cnccc3c2)cc1 | 247 nM
14 | Cc1cccc(NC(=O)Nc2ccc3nnccc3c2)c1 | > 1700 nM
15 | c1ccc(-c2cnc(Nc3ccc4cnccc4c3)o2)cc1 | 5 nM

More lines, now with the values ahead:

Row | IC50 | Compound
16 | 3000 nM | C=CCc1c(N)ccc2cnccc12
17 | > 5000 nM | COc1ccc2cnccc2c1Br
18 | > 5000 nM | CC(=O)Nc1ccc2cnccc2c1
19 | > 5000 nM | Nc1ccc2cnccc2c1
20 | > 5000 nM | Nc1ccc2cnccc2c1N
21 | 1200 nM | Nc1ccc2cnccc2c1Cl
22 | 820 nM | C=Cc1c(N)ccc2cnccc12
23 | 550 nM | Nc1ccc2cnccc2c1Br
24 | > 5000 nM | CCCc1c(N)ccc2cnccc12
25 | > 5000 nM | Cc1c(N)ccc2cnccc12
